Assay results taken from US20240059677A1, “SUBSTITUTED PYRIMIDINE DERIVATIVES AS NICOTINIC ACETYLCHOLINESTERASE RECEPTOR ALPHA 6 MODULATOR” (priority 2020, published 2024).
pIC50: −log10 of the molar value. Marks after values point to notes of the source that are not given here.

Legend:
[1] = target: T1, human nAChRα6-α3 chimera, in addition to β2 and β3^V273S subunits (Homo sapiens, UniProt P32297+Q15825); experiment: fluorescence-based calcium assay: inhibition of nicotine stimulated nAChRα6 activity (FLIPR); conditions: HEK cell line stably expressing the receptor; 10 min pre-incubation, nicotine EC80; 10-point curve, duplicate wells; read-out: IC50
T1 construct: expressed in transfected cells
In short: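 HEK cells stably expressing the human α6-α3 chimera with β2 and β3^V273S were loaded with calcium dye at 30° C. Compounds were pre-incubated for 10 min before nicotine at EC80, and the fluorescence change was read on a FLIPR. Ten-point half-log concentration-response, duplicate wells.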

[2] = test system: tremulous jaw movements induced by tacrine in male C57BL/6J mice; experiment: tacrine-induced tremulous jaw movements, mice; assay type: in vivo; conditions: mouse; 10 mg/kg p.o.; tacrine 5 mg/kg i.p.; n=10/group; tremulous jaw movements relative to vehicle (100%)
Experimental: (§1) Resting tremor is one of the classic symptoms of Parkinson's disease. These characteristic tremors can be modelled pharmacologically in preclinical models using cholinomimetics such as the acetylcholine esterase inhibitor, tacrine (5 mg/kg, i.p.) (Salamone et al, Prog Neurobiol 56: 591-611 1998) to induce tremulous jaw movement behaviours. These tremulous jaw movements are thought to arise from an imbalance between cholinergic and dopaminergic neurotransmission and are thought to mimic the imbalances in neurotransmission resulting from the dopamine loss seen in Parkinson's disease (Aosaki et al, Geriatr Gerontol Int 10: s148-s157 2010). These tremors can be reversed by agents increasing the dopamine tone, such as dopamine agonists (Salamone et al, Behav Brain Res 156: 173-179 2005).
The objective of these studies was to evaluate the effects of oral administration of Example Compounds on tremulous jaw movements induced by tacrine in male C57BL/6J mice or Sprague-Dawley rats. Animals were administered vehicle (0.5% methylcellulose, p.o.) or Example Compound (across a range of doses; 10 mg/kg, p.o. data shown) 15 to 60 minutes prior to behavioural testing (n=10/group). Tacrine (5 mg/kg, i.p.) was administered to all animals immediately before behavioural assessment commenced. For each animal the latency to the first tremulous jaw movement and the total duration of the tremulous jaw movements post tacrine administration were recorded.
illustrative data shown is percentage attenuation of tacrine-induced tremulous jaw movements relative to vehicle (100%). Each compound shown was tested at 10 mg/kg p.o.
(§2) Statistical significance was assessed using an unpaired student's t-test vs vehicle * p<0.05, ***p<0.001.

[3] = test system: tremulous jaw movements induced by tacrine in Sprague-Dawley rats; experiment: tacrine-induced tremulous jaw movements, rats; assay type: in vivo; conditions: rat; 10 mg/kg p.o.; tacrine 5 mg/kg i.p.; n=10/group; tremulous jaw movements relative to vehicle (100%)
Experimental: as §1
The objective of these studies was to evaluate the effects of oral administration of Example Compounds on tremulous jaw movements induced by tacrine in male C57BL/6J mice or Sprague-Dawley rats. […] For each animal the latency to the first tremulous jaw movement and the total duration of the tremulous jaw movements post tacrine administration were recorded. […]
as §2

T1 sequence (Q05901 25-458 V273S): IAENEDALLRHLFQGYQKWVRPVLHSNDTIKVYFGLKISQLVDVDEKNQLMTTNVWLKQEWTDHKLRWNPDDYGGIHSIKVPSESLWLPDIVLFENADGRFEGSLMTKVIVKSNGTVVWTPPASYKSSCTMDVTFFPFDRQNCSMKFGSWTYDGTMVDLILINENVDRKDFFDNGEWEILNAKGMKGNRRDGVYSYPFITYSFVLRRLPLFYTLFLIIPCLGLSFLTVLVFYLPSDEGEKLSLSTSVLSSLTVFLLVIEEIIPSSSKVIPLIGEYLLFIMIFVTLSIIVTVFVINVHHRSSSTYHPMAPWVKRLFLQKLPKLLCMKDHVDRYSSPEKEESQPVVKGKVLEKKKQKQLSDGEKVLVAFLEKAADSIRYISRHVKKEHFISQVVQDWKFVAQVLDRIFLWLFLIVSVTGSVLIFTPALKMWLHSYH
T1 sequence (P17787 26-502, stated change not applied, further chain): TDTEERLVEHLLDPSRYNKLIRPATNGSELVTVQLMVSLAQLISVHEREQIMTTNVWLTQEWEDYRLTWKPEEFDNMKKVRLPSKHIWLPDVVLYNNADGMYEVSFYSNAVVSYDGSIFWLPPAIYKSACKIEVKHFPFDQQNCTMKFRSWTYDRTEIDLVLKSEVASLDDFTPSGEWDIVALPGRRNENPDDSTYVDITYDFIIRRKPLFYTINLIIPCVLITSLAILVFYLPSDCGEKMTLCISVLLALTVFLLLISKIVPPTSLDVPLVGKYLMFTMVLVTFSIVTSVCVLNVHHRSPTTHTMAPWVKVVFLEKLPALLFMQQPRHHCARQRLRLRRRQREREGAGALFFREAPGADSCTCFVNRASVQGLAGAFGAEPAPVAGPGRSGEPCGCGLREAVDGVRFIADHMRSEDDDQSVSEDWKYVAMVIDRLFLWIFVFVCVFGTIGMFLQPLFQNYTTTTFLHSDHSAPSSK
T1 sequence (Q15825+P32297 fused with the stated changes): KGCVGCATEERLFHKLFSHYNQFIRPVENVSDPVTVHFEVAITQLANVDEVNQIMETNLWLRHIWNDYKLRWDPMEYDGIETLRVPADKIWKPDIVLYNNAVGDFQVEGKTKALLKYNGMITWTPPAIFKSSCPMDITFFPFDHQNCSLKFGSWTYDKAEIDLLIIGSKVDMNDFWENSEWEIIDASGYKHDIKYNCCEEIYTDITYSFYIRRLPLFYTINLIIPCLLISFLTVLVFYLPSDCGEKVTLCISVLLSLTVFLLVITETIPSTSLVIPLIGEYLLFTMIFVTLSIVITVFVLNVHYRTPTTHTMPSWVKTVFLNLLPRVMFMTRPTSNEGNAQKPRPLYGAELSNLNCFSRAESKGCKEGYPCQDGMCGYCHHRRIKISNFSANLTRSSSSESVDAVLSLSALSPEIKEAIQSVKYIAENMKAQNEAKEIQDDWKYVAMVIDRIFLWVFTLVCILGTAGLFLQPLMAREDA

Row | SMILES | pIC50 [1] | % Decrease from vehicle or percentage relative to vehicle (100%), (mean ± SEM) [2] | % Decrease from vehicle or percentage relative to vehicle (100%), (mean ± SEM) [3]
1 | CCN1CCC[C@H](Nc2ncc(-c3ccc(F)cc3F)c(C)n2)C1.O=C(O)/C=C/C(=O)O (single isomer, unassigned) [Example 78b] | 7.22 | 23.8 ± 7.7*** % | 
2 | Cc1nc(NC[C@H]2CCCN2C)ncc1-c1ccc(F)cc1F [Example 24b, (R)-5-(2,4-difluorophenyl)-4-methyl-N-((1-methylpyrrolidin-2-yl)methyl) pyrimidin-2-amine] | 8.30 | 23.9 ± 3.8*** % | 
3 | CC(C)N1CCC(Nc2ncc(-c3ccc(F)cc3F)c(C#N)n2)CC1 [Example 65, 5-(2,4-difluorophenyl)-2-((1-isopropylpiperidin-4-yl)amino)pyrimidine-4-carbonitrile] | 7.08 |  | 30.0 ± 12.8* %
4 | Cc1nc(NC[C@@H]2CCCN2)ncc1-c1ccc(F)cc1F [Example 94b, (S)-5-(2,4-difluorophenyl)-4-methyl-N-(pyrrolidin-2-ylmethyl)pyrimidin-2-amine] | 8.30 | 79.9 ± 7.2% | 
